# According to patent EP0428132A1, “Pradimicin derivatives” (Bristol-Myers Squibb Company, priority 1989, dated 1991):
# Columns and labels:
# [1] = system: Candida albicans A25578; assay: In vitro antifungal activity, serial agar dilution method (Table 1a); assay type: cell-based; details: A25578, YM agar (pH 7.0, Difco), 30°C for 2 days (yeast) or 4 days (filamentous fungi), read-out: MICs, Candida albicans A25578
# Protocol: (§1) The inoculum size was adjusted to 10⁶ cells/ml, and a volume of approximately 0.003 ml of fungal suspension was applied to the surface of the antibiotic containing agar plates with a multiinoculator. After incubation, the lowest concentration of antibiotic causing virtually complete inhibition of fungal growth was determined as the minimum inhibitory concentration (MIC).
# [2] = system: Candida albicans A9540; assay: as above; assay type: cell-based; details: A9540, YM agar (pH 7.0, Difco), 30°C for 2 days (yeast) or 4 days (filamentous fungi), read-out: MICs, Candida albicans A9540
# Protocol: as §1
# [3] = system: Candida paratropicalis A25825; assay: as above; assay type: cell-based; details: YM agar (pH 7.0, Difco); 30°C for 2 days (yeast) or 4 days (filamentous fungi); read-out: MICs, Candida paratropicalis A25825
# Protocol: as §1
# [4] = system: Candida pseudotropicalis A25802; assay: as above; assay type: cell-based; details: Kluyveromyces marxianus, YM agar (pH 7.0, Difco), 30°C for 2 days (yeast) or 4 days (filamentous fungi), read-out: MICs, Candida pseudotropicalis A25802
# Protocol: as §1
# [5] = system: Candida tropicalis A25809; assay: as above; assay type: cell-based; details: YM agar (pH 7.0, Difco), 30°C for 2 days (yeast) or 4 days (filamentous fungi), read-out: MICs, Candida tropicalis A25809
# Protocol: as §1
# [6] = system: Candida tropicalis A25812; assay: as above; assay type: cell-based; details: A25812, YM agar (pH 7.0, Difco), 30°C for 2 days (yeast) or 4 days (filamentous fungi), read-out: MICs, Candida tropicalis A25812
# Protocol: as §1
# [7] = system: Cryptococcus neoformans A15053; assay: as above; assay type: cell-based; details: A15053, YM agar (pH 7.0, Difco), 30°C for 2 days (yeast) or 4 days (filamentous fungi), read-out: MICs, Cryptococcus neoformans A15053
# Protocol: as §1
# [8] = system: Microsporum canis WW10218; assay: as above; assay type: cell-based; details: WW10218, pH 7, read-out: MICs, Microsporum canis WW10218
# Protocol: as §1
# [9] = system: Microsporum gypseum WW1107; assay: as above; assay type: cell-based; details: Nannizzia gypsea, YM agar (pH 7.0, Difco), 30°C for 2 days (yeast) or 4 days (filamentous fungi), read-out: MICs, Microsporum gypseum WW1107
# Protocol: as §1
# [10] = system: Saccharomyces cerevisiae A25803; assay: as above; assay type: cell-based; details: YM agar (pH 7.0, Difco), 30°C for 2 days (yeast) or 4 days (filamentous fungi), read-out: MICs, Saccharomyces cerevisiae A25803
# Protocol: as §1
# [11] = system: Trichophyton mentagrophytes A26771; assay: as above; assay type: cell-based; details: A26771, YM agar (pH 7.0, Difco), 30°C for 2 days (yeast) or 4 days (filamentous fungi), read-out: MICs, Trichophyton mentagrophytes A26771
# Protocol: as §1
# [12] = system: Trichophyton rubrum A26761; assay: as above; assay type: cell-based; details: A26761, pH 7, read-out: MICs, Trichophyton rubrum A26761
# Protocol: as §1
# [13] = Water solubility, protocol I (PBS, HPLC); assay type: physicochemical; details: Method I: PBS without CaCl₂ and MgCl₂.6H₂O
# Protocol: The supernatant (2 µL) was analyzed by HPLC using the conditions specified for each compound in the Experimental Section. […] When not soluble, an additional amount of PBS (x µL) was added, sonicated, and centrifuged. When visibly soluble, the solution (2 µL) was injected to HPLC and the peak area was used for the known concentration of the sample.
# [14] = system: FA21436; assay: In vitro antifungal activity, serial agar dilution method (Table 1); assay type: cell-based, Asoergukkys flavus
# Protocol: as §1, with “(MIC). Table 1. [table]” for “(MIC).”
# [15] = system: Aspergillus fumigatus IAM2034; assay: as above; assay type: cell-based; details: Sabouraud dextrose agar (pH 7.0), 28°C for 40 hours
# Protocol: as §1, with “(MIC). Table 1. [table]” for “(MIC).”
# [16] = system: Aspergillus fumigatus IAM2530; assay: as above; assay type: cell-based; details: Sabouraud dextrose agar (pH 7.0), 28°C for 40 hours
# Protocol: as §1, with “(MIC). Table 1. [table]” for “(MIC).”
# [17] = system: Blastomyces dermatidis D40; assay: as above; assay type: cell-based
# Protocol: as §1, with “(MIC). Table 1. [table]” for “(MIC).”
# [18] = system: Candida albicans A9540; assay: as above; assay type: cell-based; details: Sabouraud dextrose agar (pH 7.0), 28°C for 40 hours
# Protocol: as §1, with “(MIC). Table 1. [table]” for “(MIC).”
# [19] = system: Candida albicans IAM4888; assay: as above; assay type: cell-based; details: Sabouraud dextrose agar (pH 7.0), 28°C for 40 hours
# Protocol: as §1, with “(MIC). Table 1. [table]” for “(MIC).”
# [20] = system: Cryptococcus neoformans D49; assay: as above; assay type: cell-based
# Protocol: as §1, with “(MIC). Table 1. [table]” for “(MIC).”
# [21] = system: Cryptococcus neoformans IAM4514; assay: as above; assay type: cell-based; details: Sabouraud dextrose agar (pH 7.0), 28°C for 40 hours
# Protocol: as §1, with “(MIC). Table 1. [table]” for “(MIC).”
# [22] = system: Fusarium moniliforme A2284; assay: as above; assay type: cell-based; details: Sabouraud dextrose agar (pH 7.0), 28°C for 40 hours
# Protocol: as §1, with “(MIC). Table 1. [table]” for “(MIC).”
# [23] = system: Mucor spinosus IFO5317; assay: as above; assay type: cell-based; details: Sabouraud dextrose agar (pH 7.0), 28°C for 40 hours
# Protocol: as §1, with “(MIC). Table 1. [table]” for “(MIC).”
# [24] = system: Petriellidium boydii IFO8078; assay: as above; assay type: cell-based; details: Sabouraud dextrose agar (pH 7.0), 28°C for 40 hours
# Protocol: as §1, with “(MIC). Table 1. [table]” for “(MIC).”
# [25] = system: Sprotricosis schenckii IFO8158; assay: as above; assay type: cell-based
# Protocol: as §1, with “(MIC). Table 1. [table]” for “(MIC).”
# [26] = system: Trichophyton mentagrophytes #4329; assay: as above; assay type: cell-based; details: Sabouraud dextrose agar (pH 7.0), 28°C for 40 hours
# Protocol: as §1, with “(MIC). Table 1. [table]” for “(MIC).”
# [27] = system: Trichophyton mentagrophytes D155; assay: as above; assay type: cell-based; details: Sabouraud dextrose agar (pH 7.0), 28°C for 40 hours
# Protocol: as §1, with “(MIC). Table 1. [table]” for “(MIC).”
# [28] = Sabouraud dextrose agar (pH 7.0), 28°C for 40 hours
Compound,MIC [1] [µg/mL],MIC [2] [µg/mL],MIC [3] [µg/mL],MIC [4] [µg/mL],MIC [5] [µg/mL],MIC [6] [µg/mL],MIC [7] [µg/mL],MIC [8] [µg/mL],MIC [9] [µg/mL],MIC [10] [µg/mL],MIC [11] [µg/mL],MIC [12] [µg/mL],further results
"COc1cc(O)c2c(c1)C(=O)c1c(cc3c(c1O)-c1c(cc(C)c(C(=O)N[C@H](C)C(=O)O)c1O)[C@H](O[C@@H]1O[C@H](C)[C@H](N(C)C(N)=O)[C@H](O)[C@H]1O)[C@H]3O)C2=O [Ex. 17, N-carbamyl pradimicin B]",3.2,6.3,6.3,1.6,1.6,6.3,6.3,25,25,1.6,25,25,–
"COc1cc(O)c2c(c1)C(=O)c1c(cc3c(c1O)-c1c(cc(C)c(C(=O)N[C@H](C)C(=O)O)c1O)[C@H](O[C@@H]1O[C@H](C)[C@H](N(C)C(=O)NS(=O)(=O)c4ccc(C)cc4)[C@H](O)[C@H]1O)[C@H]3O)C2=O [Ex. 19, N-(p-toluenesulfonylcarbamyl) pradimicin B]",12.5,12.5,25,3.2,6.3,12.5,6.3,12.5,50,3.2,50,50,–
"C=CCN(C)[C@@H]1[C@H](O[C@@H]2OC[C@@H](O)[C@H](O)[C@H]2O)[C@@H](O)[C@H](O[C@H]2c3cc(C)c(C(=O)N[C@H](C)C(=O)O)c(O)c3-c3c(cc4c(c3O)C(=O)c3cc(OC)cc(O)c3C4=O)[C@@H]2O)O[C@@H]1C [Ex. 22, N-(Allyl) pradimicin A]",3.2,> 50,> 50,3.2,–,> 50,0.4,1.6,> 50,–,> 50,–,solubility [13]: 5000 µg/mL
"COC(=O)/C=C/CN(C)[C@@H]1[C@H](O[C@@H]2OC[C@@H](O)[C@H](O)[C@H]2O)[C@@H](O)[C@H](O[C@H]2c3cc(C)c(C(=O)N[C@H](C)C(=O)O)c(O)c3-c3c(cc4c(c3O)C(=O)c3cc(OC)cc(O)c3C4=O)[C@@H]2O)O[C@@H]1C [compound 12, N-(trans-3-methoxycarbonyl-2-propenyl) pradimicin A]",–,–,–,–,–,–,–,–,–,–,–,–,"MIC ([14]; 40 h, pH 7, read-out: MIC, Asoergukkys flavus FA21436): 25 µg/mL; MIC ([15]; Aspergillus fumigatus, IAM2034): 12.5 µg/mL; MIC ([16]; Aspergillus fumigatus, IAM2530): 12.5 µg/mL; MIC ([17]; Blastomyces, D40, 40 h, pH 7, read-out: MIC, Blastomyces dermatidis D40): > 25 µg/mL; MIC ([18]; Candida albicans, A9540): > 25 µg/mL; MIC ([19]; Candida albicans, IAM4888): 25 µg/mL; MIC ([20]; Cryptococcus neoformans, D49, 40 h, pH 7, read-out: MIC, Cryptococcus neoformans D49): 6.3 µg/mL; MIC ([21]; Cryptococcus neoformans, IAM4514): 6.3 µg/mL; MIC ([22]; Fusarium verticillioides, A2284): > 25 µg/mL; MIC ([23]; Mucor spinosus, IFO5317): > 25 µg/mL; MIC ([24]; Scedosporium boydii, IFO8078): > 25 µg/mL; MIC ([25]; 40 h, pH 7, read-out: MIC, Sprotricosis schenckii IFO8158): 12.5 µg/mL; MIC ([26]; Trichophyton mentagrophytes): 25 µg/mL; MIC ([27]; Trichophyton mentagrophytes, D155): 12.5 µg/mL"
N-(sodiosulfomethyl) pradimicin A [Ex. 8],–,–,–,–,–,–,–,–,–,–,–,–,"MIC, Asoergukkys flavus FA21436 [14, 28]: 6.3 µg/mL; MIC, Aspergillus fumigatus IAM2034 [15]: 3.1 µg/mL; MIC, Aspergillus fumigatus IAM2530 [16]: 1.6 µg/mL; MIC, Blastomyces dermatidis D40 [17, 28]: 1.6 µg/mL; MIC, Candida albicans A9540 [18]: 6.3 µg/mL; MIC, Candida albicans IAM4888 [19]: 3.1 µg/mL; MIC, Cryptococcus neoformans D49 [20, 28]: 0.8 µg/mL; MIC, Cryptococcus neoformans IAM4514 [21]: 0.8 µg/mL; MIC, Fusarium moniliforme A2284 [22]: 3.1 µg/mL; MIC, Mucor spinosus IFO5317 [23]: > 50.0 µg/mL; Partial Inhibition, Mucor spinosus IFO5317 ([23]; value in parentheses = Partial Inhibition): 6.3 µg/mL; MIC, Petriellidium boydii IFO8078 [24]: 6.3 µg/mL; MIC, Sprotricosis schenckii IFO8158 [25, 28]: 1.6 µg/mL; MIC, Trichophyton mentagrophytes #4329 [26]: 3.1 µg/mL; MIC, Trichophyton mentagrophytes D155 [27]: 6.3 µg/mL"
